Key:
Settings in all cases: 72 h
Caco-2 [1] = experiment: cell viability relative to DMSO; higher = less toxic
Calu-3 [2] = experiment: as above
HepG2 [3] = experiment: as above
U2OS [4] = experiment: as above
Vero E6 [5] = experiment: as above
Calu-3 [6] = experiment: relative viability EC50 (midpoint between 100% and the lowest measured viability); higher = less toxic
HepG2 [7] = experiment: as above
U2OS [8] = experiment: as above
Vero E6 [9] = experiment: as above
Caco-2 [10] = experiment: drug sensitivity score (DSS) for viability; higher = more toxic; extreme values may be limits of the assay
Calu-3 [11] = experiment: as above
HepG2 [12] = experiment: as above
U2OS [13] = experiment: as above
Vero E6 [14] = experiment: as above
Caco-2 [15] = experiment: relative viability EC50 (midpoint between 100% and the lowest measured viability); higher = less toxic

CN(C)CC[C@@](O)(c1ccccc1)c1ccccc1Cl [clofedanol]
cell viability (Caco-2 [1]; 1 nM): 93.4%
cell viability (Caco-2 [1]; 10 nM): 89.6%
cell viability (Caco-2 [1]; 100 nM): 103%
cell viability (Caco-2 [1]; 1000 nM): 95.8%
cell viability (Caco-2 [1]; 10000 nM): 72.5%
cell viability (Calu-3 [2]; 1 nM): 101%
cell viability (Calu-3 [2]; 10 nM): 106%
cell viability (Calu-3 [2]; 100 nM): 102%
cell viability (Calu-3 [2]; 1000 nM): 101%
cell viability (Calu-3 [2]; 10000 nM): 96.4%
cell viability (HepG2 [3]; 1 nM): 93.7%
cell viability (HepG2 [3]; 10 nM): 97.1%
cell viability (HepG2 [3]; 100 nM): 101%
cell viability (HepG2 [3]; 1000 nM): 94.2%
cell viability (HepG2 [3]; 10000 nM): 113%
cell viability (U2OS [4]; 1 nM): 99.2%
cell viability (U2OS [4]; 10 nM): 98.1%
cell viability (U2OS [4]; 100 nM): 92.7%
cell viability (U2OS [4]; 1000 nM): 102%
cell viability (U2OS [4]; 10000 nM): 100%
cell viability (Vero E6 [5]; 1 nM): 104%
cell viability (Vero E6 [5]; 10 nM): 96.5%
cell viability (Vero E6 [5]; 100 nM): 99.5%
cell viability (Vero E6 [5]; 1000 nM): 88.9%
cell viability (Vero E6 [5]; 10000 nM): 101%
relative viability EC50 (Calu-3 [6]): > 10 µM
relative viability EC50 (HepG2 [7]): > 10 µM
relative viability EC50 (U2OS [8]): > 10 µM
relative viability EC50 (Vero E6 [9]): > 10 µM
drug sensitivity score (Caco-2 [10]): 1.8
drug sensitivity score (Calu-3 [11]): 0
drug sensitivity score (HepG2 [12]): 0
drug sensitivity score (U2OS [13]): 0
drug sensitivity score (Vero E6 [14]): 0

COc1oc(=O)c2cc(N)ccc2c1Cl [JLK-6]
cell viability (Caco-2 [1]; 1 nM): 99.2%
cell viability (Caco-2 [1]; 10 nM): 94.6%
cell viability (Caco-2 [1]; 100 nM): 96.1%
cell viability (Caco-2 [1]; 1000 nM): 95.4%
cell viability (Caco-2 [1]; 10000 nM): 76.6%
cell viability (Calu-3 [2]; 1 nM): 103%
cell viability (Calu-3 [2]; 10 nM): 105%
cell viability (Calu-3 [2]; 100 nM): 106%
cell viability (Calu-3 [2]; 1000 nM): 94.9%
cell viability (Calu-3 [2]; 10000 nM): 80.9%
cell viability (HepG2 [3]; 1 nM): 96.6%
cell viability (HepG2 [3]; 10 nM): 113%
cell viability (HepG2 [3]; 100 nM): 103%
cell viability (HepG2 [3]; 1000 nM): 105%
cell viability (HepG2 [3]; 10000 nM): 73.1%
cell viability (U2OS [4]; 1 nM): 99.7%
cell viability (U2OS [4]; 10 nM): 98.2%
cell viability (U2OS [4]; 100 nM): 99.1%
cell viability (U2OS [4]; 1000 nM): 99.4%
cell viability (U2OS [4]; 10000 nM): 91.7%
cell viability (Vero E6 [5]; 1 nM): 108%
cell viability (Vero E6 [5]; 10 nM): 104%
cell viability (Vero E6 [5]; 100 nM): 100%
cell viability (Vero E6 [5]; 1000 nM): 104%
cell viability (Vero E6 [5]; 10000 nM): 93.8%
relative viability EC50 (Caco-2 [15]): > 10 µM
relative viability EC50 (Calu-3 [6]): > 10 µM
relative viability EC50 (U2OS [8]): > 10 µM
relative viability EC50 (Vero E6 [9]): > 10 µM
drug sensitivity score (Caco-2 [10]): 1.5
drug sensitivity score (Calu-3 [11]): 1.1
drug sensitivity score (HepG2 [12]): 0.8
drug sensitivity score (U2OS [13]): 0
drug sensitivity score (Vero E6 [14]): 0

O=C1CN(/N=C/c2ccc([N+](=O)[O-])o2)C(=O)N1 [nitrofurantoin]
cell viability (Caco-2 [1]; 1 nM): 101%
cell viability (Caco-2 [1]; 10 nM): 101%
cell viability (Caco-2 [1]; 100 nM): 95.8%
cell viability (Caco-2 [1]; 1000 nM): 89.9%
cell viability (Caco-2 [1]; 10000 nM): 103%
cell viability (Calu-3 [2]; 1 nM): 106%
cell viability (Calu-3 [2]; 10 nM): 111%
cell viability (Calu-3 [2]; 100 nM): 97.6%
cell viability (Calu-3 [2]; 1000 nM): 94.3%
cell viability (Calu-3 [2]; 10000 nM): 102%
cell viability (HepG2 [3]; 1 nM): 98.4%
cell viability (HepG2 [3]; 10 nM): 111%
cell viability (HepG2 [3]; 100 nM): 113%
cell viability (HepG2 [3]; 1000 nM): 109%
cell viability (HepG2 [3]; 10000 nM): 60%
cell viability (U2OS [4]; 1 nM): 104%
cell viability (U2OS [4]; 10 nM): 97.9%
cell viability (U2OS [4]; 100 nM): 101%
cell viability (U2OS [4]; 1000 nM): 101%
cell viability (U2OS [4]; 10000 nM): 103%
cell viability (Vero E6 [5]; 1 nM): 92.4%
cell viability (Vero E6 [5]; 10 nM): 95.1%
cell viability (Vero E6 [5]; 100 nM): 98.4%
cell viability (Vero E6 [5]; 1000 nM): 96.7%
cell viability (Vero E6 [5]; 10000 nM): 97.4%
relative viability EC50 (Caco-2 [15]): > 10 µM
relative viability EC50 (Calu-3 [6]): > 10 µM
relative viability EC50 (U2OS [8]): > 10 µM
relative viability EC50 (Vero E6 [9]): > 10 µM
drug sensitivity score (Caco-2 [10]): 0
drug sensitivity score (Calu-3 [11]): 0
drug sensitivity score (HepG2 [12]): 1.5
drug sensitivity score (U2OS [13]): 0
drug sensitivity score (Vero E6 [14]): 0
